Experimental data: the CATMoS acute toxicity set (Mansouri et al. 2021)

Assay: GHS categories as the set defines them, by LD50: 1 up to 5, 2 up to 50, 3 up to 300, 4 up to 2000, 5 above 2000 mg/kg
Settings: rat; in vivo; po

SMILES: CCCCC(CC)COC(=O)C1CCC(C(=O)OCC(CC)CCCC)CC1 (stereo not drawn)
- GHS category: 5

SMILES: O=[N+]([O-])c1ccc(OCC2CO2)cc1 (stereo not drawn)
- GHS category: 5

SMILES: CCC(C)(CCC(C)C)C(=O)OCC1CO1 (stereo not drawn)
- GHS category: 5

SMILES: COc1cc(C)c(/C=C/C(C)=C/C=C/C(C)=C/C(=O)O)c(C)c1C
- GHS category: 5

SMILES: CCCCCCCOc1ccc(-c2ccc(C#N)cc2)cc1
- GHS category: 5

SMILES: N[C@@H](CSSC[C@H](N)C(=O)O)C(=O)O
- GHS category: 5

SMILES: CCCCC(CC)COC(=O)c1ccc(Nc2nc(Nc3ccc(C(=O)NC(C)(C)C)cc3)nc(Nc3ccc(C(=O)OCC(CC)CCCC)cc3)n2)cc1 (stereo not drawn)
- GHS category: 5

SMILES: FC(F)(F)N1C(F)(F)C(F)(F)OC(F)(F)C1(F)F
- GHS category: 5

SMILES: Cc1cccc(C)c1NC(=O)C1CCCCN1C (stereo not drawn)
- GHS category: 5

SMILES: CCCCCCOC(=O)C(C)C
- GHS category: 5

SMILES: CCOC(=O)C(=O)Nc1cc(OC)ncn1
- GHS category: 4

SMILES: ICC1CCC(CI)CC1 (stereo not drawn)
- GHS category: 5

SMILES: CSCC[C@H](NC(=O)CCSC(=O)c1ccccc1)C(=O)OC(C)C
- GHS category: 5

SMILES: COC(=O)c1ccc(C(=O)Nc2cc(Cl)ccc2Cl)cc1N
- GHS category: 4

SMILES: CC1CC(NC(N)=O)NC(=O)N1 (stereo not drawn)
- GHS category: 5

SMILES: C=C[Si]1(C)O[Si](C)(C=C)O[Si](C)(C=C)O[Si](C)(C=C)O1 (stereo not drawn)
- GHS category: 5

SMILES: CN(C(=O)COc1nc2ccccc2s1)c1ccccc1
- GHS category: 5

SMILES: Cc1ccc(OC(N)=O)c(C(=O)Oc2ccccc2)c1
- GHS category: 5

SMILES: O=C1CC(Nc2ccc(Cl)cc2Cl)=NN1c1c(Cl)cc(Cl)cc1Cl
- GHS category: 5

SMILES: COc1c(Cl)ccc(B(O)O)c1F
- GHS category: 5

SMILES: CCCCOC(=O)CCC(C)=O
- GHS category: 5

SMILES: O=S(=O)([O-])CCC[n+]1ccccc1
- GHS category: 5

SMILES: C=C(C)C(=O)OCCC(F)(F)C(F)(F)C(F)(F)C(F)(F)C(F)(F)C(F)(F)F
- GHS category: 5

SMILES: CCC(C)O[Si](OC(C)CC)(OC(C)CC)OC(C)CC (stereo not drawn)
- GHS category: 5

SMILES: O=C1c2ccc(N(c3ccc(Cl)cc3)c3ccc(Cl)cc3)cc2C(=O)N1Cc1cccnc1
- GHS category: 5

SMILES: COc1cc2c(s1)C(O)=C(C(=O)Nc1ccccn1)N(C)S2(=O)=O
- GHS category: 3

SMILES: CCn1cc(C(=O)O)c(=O)c2cc(F)c(N3CCNCC3)cc21
- GHS category: 5

SMILES: CC(C)(c1cc(Br)c(O)c(Br)c1)c1cc(Br)c(O)c(Br)c1
- GHS category: 5

SMILES: COc1ccc(C=C(C(=O)Nc2ccccc2C(=O)O)C(=O)Nc2ccccc2C(=O)O)cc1OC
- GHS category: 5

SMILES: Cc1cc(NC(=O)NC(=O)c2c(F)cccc2F)nc(C)c1-c1ccc(Cl)cc1
- GHS category: 5

SMILES: O=C1OC(CN2CCCCC2)CC12CC(CN1CCCCC1)OC2=O (stereo not drawn)
- GHS category: 5

SMILES: COC(=O)c1ccc(OC)cc1
- GHS category: 5

SMILES: Nc1nc2c(ncn2[C@@H]2O[C@H](COP(=O)(O)O)[C@@H](O)[C@H]2O)c(=O)[nH]1
- GHS category: 5

SMILES: Cc1nc2ncnn2c(C)c1Cc1ccc(-c2ccccc2-c2nn[nH]n2)cc1
- GHS category: 4

SMILES: CC1CCC2C(C)(C)C3CC12CC1OC13C (stereo not drawn)
- GHS category: 5

SMILES: CCCOC(C)OCCc1ccccc1 (stereo not drawn)
- GHS category: 5

SMILES: O=C(O)CCCCCCCCCCCCCCCCC(=O)O
- GHS category: 5

SMILES: O=C(O)c1cc(O)c2c3nc4ccccc4oc-3cc(=O)c2n1
- GHS category: 5

SMILES: COc1ccc2c(c1)CCN(c1ccccc1)C2c1ccc(OCCN2CCCC2)cc1 (stereo not drawn)
- GHS category: 4

SMILES: Cc1nc2ccccc2c(=O)n1-c1ccccc1C#N
- GHS category: 4

SMILES: CCN(C)CCC(C#N)(CC=C(C)C)c1cccc2ccccc12 (stereo not drawn)
- GHS category: 4

SMILES: COc1ccc(N)cc1N
- GHS category: 5

SMILES: Nc1ccc(S(=O)(=O)Nc2ncccn2)cc1
- GHS category: 5

SMILES: CCCCC(CC)COC(=O)OCC(CC)CCCC (stereo not drawn)
- GHS category: 5

SMILES: CC(=O)OCC(=O)[C@@]12OC3(CCCC3)O[C@@H]1C[C@H]1[C@@H]3CCC4=CC(=O)C=C[C@]4(C)[C@@]3(F)[C@@H](O)C[C@@]12C
- GHS category: 5

SMILES: CCOC(=O)CNc1nc(Cl)nc(NC(C)C)n1
- GHS category: 5

SMILES: CCCCCCCCCCCCCCCCCCOC(=O)CCSCCC(=O)OCCCCCCCCCCCCCCCCCC
- GHS category: 5

SMILES: C[C@@H]1[C@H](O)[C@@H](C)C=CC=CC=CC=CC=CC=CC=C[C@H](O[C@@H]2O[C@H](C)[C@@H](O)[C@H](N)[C@@H]2O)C[C@@H]2O[C@](O)(C[C@@H](O)C[C@@H](O)[C@H](O)CC[C@@H](O)C[C@@H](O)CC(=O)O[C@H]1C)C[C@H](O)[C@H]2C(=O)O
- GHS category: 5

SMILES: CS(=O)(=O)c1ccc(C(=O)C2C(=O)CCCC2=O)c(Cl)c1COCC(F)(F)F
- GHS category: 5

SMILES: CCCc1nc2ccnn2c(CCC)c1Cc1ccc(-c2ccccc2-c2nn[nH]n2)cc1
- GHS category: 4

SMILES: COc1cc(OC)nc(N=C(O)NS(=O)(=O)N(C)S(C)(=O)=O)n1
- GHS category: 5

SMILES: CC1(C)S[C@@H]2[C@H](NC(=O)C(N)c3ccccc3)C(=O)N2[C@H]1C(=O)OC1OC(=O)c2ccccc21 (stereo partly drawn)
- GHS category: 4

SMILES: Clc1cccc(Cl)c1Nc1ccccc1
- GHS category: 5

SMILES: CCCCCCCCCCCCCCCC(=O)OCC(CC)CCCC (stereo not drawn)
- GHS category: 5

SMILES: O=C1NC(=O)C(=c2[nH]c(=C3C(=O)NC(=O)NC3=O)c3ccccc23)C(=O)N1
- GHS category: 5

SMILES: CCc1cccc(CC)c1NC(=O)c1sc(N)nc1C
- GHS category: 4

SMILES: COc1cc2c(cc1OC)[C@@H]1C[C@H](C[C@H]3CCCCN31)OC(=O)C=Cc1ccc(O)c-2c1
- GHS category: 4

SMILES: Cc1ccccc1OC(=O)c1cc(Cl)ccc1OC(N)=O
- GHS category: 5

SMILES: FC(F)(F)c1nc(NC2CC2)c2ncn(CC3CC3)c2n1
- GHS category: 3

SMILES: CC1C(C)(C)C2CCc3cncnc3C2C1(C)C (stereo not drawn)
- GHS category: 4

SMILES: CCCCCCC1(C)CCC(=O)O1 (stereo not drawn)
- GHS category: 5

SMILES: O=C1CC(N2C(=O)c3ccccc3C2=O)CC(=O)N1CN1CCOCC1
- GHS category: 5

SMILES: CC(C)C1OCCN1CCOC(=O)NCCCCCCNC(=O)OCCN1CCOC1C(C)C (stereo not drawn)
- GHS category: 5

SMILES: COCC(=O)O[C@]1(CCN(C)CCCc2nc3ccccc3[nH]2)CCc2cc(F)ccc2[C@@H]1C(C)C
- GHS category: 4

SMILES: CCC(=O)OCC(C)(C)OC(C)C1CCCC(C)(C)C1 (stereo not drawn)
- GHS category: 5

SMILES: C=C(OCC)C1C(C)(C)CC(=O)CC1(C)C
- GHS category: 5

SMILES: CS(=O)(=O)OC[C@@H](OS(C)(=O)=O)[C@@H](O)[C@H](O)[C@@H](COS(C)(=O)=O)OS(C)(=O)=O
- GHS category: 5

SMILES: CCCCCCCCCCCCBr
- GHS category: 5

SMILES: Cc1ccc(C2CC(=O)C(C(=O)CCc3ccc4c(c3)OCO4)C(=O)C2)cc1 (stereo not drawn)
- GHS category: 5

SMILES: CCOC[C@H]1CO[C@@](Cn2cncn2)(c2cc3cc(Cl)cc(Cl)c3o2)O1
- GHS category: 4

SMILES: CCNc1nc(Nc2ccccc2)nc(Nc2ccc(C=Cc3ccc(Nc4nc(NCC)nc(Nc5ccccc5)n4)cc3S(=O)(=O)O)c(S(=O)(=O)O)c2)n1
- GHS category: 5

SMILES: Cc1cc(C(C)(C)C)c(O)c(C)c1Cn1c(=O)n(Cc2c(C)cc(C(C)(C)C)c(O)c2C)c(=O)n(Cc2c(C)cc(C(C)(C)C)c(O)c2C)c1=O
- GHS category: 5

SMILES: CCCC(=O)c1ccc2c(c1)OC(C)(C)C(=O)N2C
- GHS category: 5

SMILES: CCO[Si](C)(CCCCl)OCC
- GHS category: 5

SMILES: CN1CC(O)C2=C/C(=N/NC(N)=O)C(=O)C=C21 (stereo not drawn)
- GHS category: 5

SMILES: COc1cc(/N=N/c2c(Br)cc([N+](=O)[O-])cc2[N+](=O)[O-])c(NC(C)=O)cc1N(CCOC(C)=O)CCOC(C)=O
- GHS category: 5

SMILES: CCOS(=O)(=O)c1cc(C(C)(C)C)cc2cc(C(C)(C)C)ccc12
- GHS category: 5

SMILES: CCCCC/C=C\C=C\C(=O)OCC
- GHS category: 5

SMILES: CCOC(=O)c1c(CSc2ccccc2)n(C)c2cc(Br)c(O)c(CN(C)C)c12
- GHS category: 5

SMILES: CCCCCCCCCl
- GHS category: 5

SMILES: C=COCCCN
- GHS category: 4

SMILES: CC(C)[C@H](N)C(=O)O
- GHS category: 5

SMILES: CCCCCCCC(=O)O[C@H]1CO[C@H]2[C@@H]1OC[C@H]2OC(=O)CCCCCCC
- GHS category: 5

SMILES: CCO[Si](CCCNC=O)(OCC)OCC
- GHS category: 5

SMILES: ClCCCCc1nnnn1C1CCCCC1
- GHS category: 5

SMILES: CC12CCC3c4ccc(OC(=O)c5ccccc5)cc4CCC3C1CCC2OC(=O)COC(=O)CCCc1ccc(N(CCCl)CCCl)cc1 (stereo not drawn)
- GHS category: 5

SMILES: CCCCCCCCCCN(C)CCCCCCCCCC
- GHS category: 4

SMILES: COc1ccc(C(=O)Nc2ccc(C(N)=O)cc2)cc1[N+](=O)[O-]
- GHS category: 5

SMILES: NC(=O)CC1(CC(=O)O)CCCCC1
- GHS category: 5

SMILES: CCCC(=O)c1ccc2c(c1)OC(C)C(=O)N2C (stereo not drawn)
- GHS category: 5

SMILES: COCCOc1ccccc1S(=O)(=O)N=C(O)N=c1nc(OC)[nH]c(OC)n1
- GHS category: 5

SMILES: CC1CC(OC(=O)C(C)Oc2ccccc2Cl)CC(C)(C)C1 (stereo not drawn)
- GHS category: 5

SMILES: O=C(O)c1cc(=O)c2c(OCC(O)COc3cccc4oc(C(=O)O)cc(=O)c34)cccc2o1
- GHS category: 5

SMILES: CCOC1(c2ccco2)CCN(CCc2ccccc2)CC1C (stereo not drawn)
- GHS category: 2

SMILES: CSC(C)=NOC(=O)N(C)SN(C)C(=O)Oc1ccccc1OC(=O)N(C)SN(C)C(=O)ON=C(C)SC
- GHS category: 4

SMILES: COC(=O)CC(C)C(=O)c1ccc(NC(=O)c2ccc(OC)cc2)c([N+](=O)[O-])c1 (stereo not drawn)
- GHS category: 5

SMILES: CCCCCCCCCC(=O)Oc1ccc(C(=O)O)cc1
- GHS category: 5

SMILES: C=C(C)CCC[C@H](C)CCOC(=O)Cc1ccccc1
- GHS category: 5

SMILES: COc1ccc2cc3[n+](cc2c1OC)CCc1cc2c(cc1-3)OCO2
- GHS category: 5

SMILES: CCOC(=O)CCC(C)=O
- GHS category: 5

SMILES: CCCCCCCCC(C)C
- GHS category: 5

SMILES: CCCCOC(=O)CC(O)C(=O)OCCCC (stereo not drawn)
- GHS category: 5

SMILES: CN(CCNCc1cc(C(C)(C)C)cc(Br)c1O)CCNC(=O)c1nc(Cl)c(N)nc1N
- GHS category: 4

SMILES: O=C(O)c1ccc(C(=O)O)o1
- GHS category: 5

SMILES: O=c1nc2nc[nH]n2c(CO)c1Cc1ccc(-c2ccccc2-c2nn[nH]n2)cc1
- GHS category: 4

SMILES: CCCc1c(Cc2ccc(-c3sccc3-c3nn[nH]n3)cc2)c(=O)nc2nc[nH]n12
- GHS category: 4

SMILES: O=C(CSCCO)NCCCOc1cccc(CN2CCCCC2)c1
- GHS category: 5

SMILES: CNS(=O)(=O)Cc1ccc2[nH]cc(CCN(C)C)c2c1
- GHS category: 5

SMILES: CC(=O)OCCC(C)CCCC(C)C (stereo not drawn)
- GHS category: 5

SMILES: COC(=O)c1ccccc1S(=O)(=O)NC(=O)Nc1nc(C)nc(OC)n1
- GHS category: 5

SMILES: CCN(CC)CCOC(=O)c1ccc(NC(=O)C(C)(C)Oc2ccccc2Cl)cc1
- GHS category: 5

SMILES: Clc1cc(Cl)ncn1
- GHS category: 3

SMILES: CCOC(=O)c1sc(-c2ccc(OCC(C)C)c(C=O)c2)nc1C
- GHS category: 5
